Measured values: US20090105305A1, “Therapeutic Agents - 550” (AstraZeneca AB, priority 2006, published 2009)

Target: T1, human Fatty Acid Synthase (Homo sapiens, UniProt P49327)
T1 construct: made in house
Assay: Human FAS enzyme assay (decrease in NADPH fluorescence)
Type: biochemical
Conditions: % inhibition at a concentration of 100 micromolar
Method in brief: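 Readout: decrease in NADPH fluorescence (340 nm ex, 460 nm em) after 60 min at RT, background-subtracted against a read taken before substrate. Substrate mix contained 500 μM malonyl-CoA and 150 μM acetyl-CoA. It was added after 15 min enzyme (0.4 μg in-house human FAS)–compound–NADPH preincubation in Tris pH 7.5 buffer; % inhibition was fitted to IC50.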

T1 sequence (P49327 whole entry): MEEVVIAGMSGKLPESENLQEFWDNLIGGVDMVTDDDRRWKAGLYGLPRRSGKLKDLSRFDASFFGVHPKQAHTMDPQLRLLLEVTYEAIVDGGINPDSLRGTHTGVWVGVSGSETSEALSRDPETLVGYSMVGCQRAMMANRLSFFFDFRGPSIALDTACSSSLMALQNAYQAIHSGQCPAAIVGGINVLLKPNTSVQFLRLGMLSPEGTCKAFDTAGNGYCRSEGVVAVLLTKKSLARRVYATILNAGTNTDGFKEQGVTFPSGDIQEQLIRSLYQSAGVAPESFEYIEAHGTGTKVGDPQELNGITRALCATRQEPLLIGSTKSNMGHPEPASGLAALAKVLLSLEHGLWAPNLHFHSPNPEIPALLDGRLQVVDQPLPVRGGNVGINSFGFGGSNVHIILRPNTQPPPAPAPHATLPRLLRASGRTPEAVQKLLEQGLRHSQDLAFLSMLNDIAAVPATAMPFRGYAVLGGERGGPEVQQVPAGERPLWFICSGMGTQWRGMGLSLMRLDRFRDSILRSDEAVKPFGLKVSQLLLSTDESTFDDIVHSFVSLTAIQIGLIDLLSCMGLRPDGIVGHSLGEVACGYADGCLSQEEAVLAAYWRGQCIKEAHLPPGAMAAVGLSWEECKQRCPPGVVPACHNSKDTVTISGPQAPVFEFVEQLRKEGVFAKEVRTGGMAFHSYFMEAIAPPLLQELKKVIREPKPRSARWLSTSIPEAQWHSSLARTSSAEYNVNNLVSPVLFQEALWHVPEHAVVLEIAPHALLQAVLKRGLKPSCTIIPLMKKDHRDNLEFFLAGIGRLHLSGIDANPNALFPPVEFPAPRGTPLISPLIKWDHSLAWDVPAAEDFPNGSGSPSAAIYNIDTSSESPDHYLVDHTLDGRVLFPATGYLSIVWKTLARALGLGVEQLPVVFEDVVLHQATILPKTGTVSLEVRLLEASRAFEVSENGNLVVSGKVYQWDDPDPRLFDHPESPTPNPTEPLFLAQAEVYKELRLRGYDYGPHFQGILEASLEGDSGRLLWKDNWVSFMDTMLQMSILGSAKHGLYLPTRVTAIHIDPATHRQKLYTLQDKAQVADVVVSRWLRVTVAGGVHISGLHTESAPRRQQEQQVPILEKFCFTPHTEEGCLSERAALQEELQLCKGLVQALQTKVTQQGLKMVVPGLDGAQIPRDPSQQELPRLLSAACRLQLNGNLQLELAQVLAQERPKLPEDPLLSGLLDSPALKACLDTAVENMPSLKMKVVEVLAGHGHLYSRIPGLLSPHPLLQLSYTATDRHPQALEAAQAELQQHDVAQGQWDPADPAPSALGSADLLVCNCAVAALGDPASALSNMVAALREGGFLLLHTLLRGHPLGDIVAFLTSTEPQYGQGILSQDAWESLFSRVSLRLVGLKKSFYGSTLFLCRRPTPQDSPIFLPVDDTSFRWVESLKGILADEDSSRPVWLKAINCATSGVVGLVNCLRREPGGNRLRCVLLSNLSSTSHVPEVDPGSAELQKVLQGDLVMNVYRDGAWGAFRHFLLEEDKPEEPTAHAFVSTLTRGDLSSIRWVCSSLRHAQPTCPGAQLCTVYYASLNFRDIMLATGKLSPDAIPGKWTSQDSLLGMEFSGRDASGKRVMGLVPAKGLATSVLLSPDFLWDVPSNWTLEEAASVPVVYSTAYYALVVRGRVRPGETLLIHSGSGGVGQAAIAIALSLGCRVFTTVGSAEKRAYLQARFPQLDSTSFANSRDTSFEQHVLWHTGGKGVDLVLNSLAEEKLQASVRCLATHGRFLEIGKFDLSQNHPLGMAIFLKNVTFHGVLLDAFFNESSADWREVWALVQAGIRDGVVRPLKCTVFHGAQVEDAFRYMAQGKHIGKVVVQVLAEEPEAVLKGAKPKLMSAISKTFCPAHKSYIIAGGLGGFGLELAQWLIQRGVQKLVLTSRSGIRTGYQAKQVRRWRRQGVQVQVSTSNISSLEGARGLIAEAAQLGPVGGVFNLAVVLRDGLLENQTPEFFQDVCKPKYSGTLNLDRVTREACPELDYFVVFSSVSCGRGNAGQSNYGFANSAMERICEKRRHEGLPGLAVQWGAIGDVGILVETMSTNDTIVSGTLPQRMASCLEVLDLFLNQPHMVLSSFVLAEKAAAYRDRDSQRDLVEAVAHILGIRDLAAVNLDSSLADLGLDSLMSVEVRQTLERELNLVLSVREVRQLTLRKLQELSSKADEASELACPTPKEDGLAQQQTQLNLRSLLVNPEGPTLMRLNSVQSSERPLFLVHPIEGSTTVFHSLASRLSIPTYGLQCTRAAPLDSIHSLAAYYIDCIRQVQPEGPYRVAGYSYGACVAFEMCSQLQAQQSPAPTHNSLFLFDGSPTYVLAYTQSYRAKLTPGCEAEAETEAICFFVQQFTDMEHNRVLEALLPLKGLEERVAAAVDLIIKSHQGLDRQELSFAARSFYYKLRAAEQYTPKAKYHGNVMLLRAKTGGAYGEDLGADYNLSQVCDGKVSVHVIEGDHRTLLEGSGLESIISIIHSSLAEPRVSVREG

| SMILES | inhibition at 100 µM [%] |
| --- | --- |
| CSCc1ccc(C(=O)N2CCC(c3ccc(C#N)cc3)CC2)cc1NS(C)(=O)=O [Example 176, N-[5-[4-(4-cyanophenyl)piperidine-1-carbonyl]-2-(methylsulfanylmethyl)phenyl]methanesulfonamide] | 78 |
| Cc1ccc(C(=O)N2CCC(c3ccc(C(F)(F)F)cc3)CC2)cc1NS(=O)(=O)C1CCS(=O)(=O)C1 (centres unmarked) [Example 177, N-[2-methyl-5-[4-[4-(trifluoromethyl)phenyl]piperidine-1-carbonyl]phenyl]-1,1-dioxothiolane-3-sulfonamide] | 91 |
| COc1cc(C2CCN(C(=O)c3ccc(C)c(NS(C)(=O)=O)c3)CC2)ccc1C#N [Example 178, N-[5-[4-(4-cyano-3-methoxyphenyl)piperidine-1-carbonyl]-2-methylphenyl]methanesulfonamide] | 81 |
| Cc1ccc(C(=O)N2CCC(c3ccc(C#N)c(F)c3)CC2)cc1NS(C)(=O)=O [Example 179, N-[5-[4-(4-cyano-3-fluorophenyl)piperidine-1-carbonyl]-2-methylphenyl]methanesulfonamide] | 85 |
| Cc1ccc(C(=O)N2CCC(c3ccc(OC(F)(F)F)cc3)CC2)cc1NS(C)(=O)=O [Example 180, N-[2-methyl-5-[4-[4-(trifluoromethoxy)phenyl]piperidine-1-carbonyl]phenyl]methanesulfonamide] | 96 |
| Cc1ccc(C(=O)N2CCC(c3ccc(OCC#N)cc3)CC2)cc1NS(C)(=O)=O [Example 181, N-[5-[4-[4-(cyanomethoxy)phenyl]piperidine-1-carbonyl]-2-methylphenyl]methanesulfonamide] | 100 |
| Cc1ccc(C(=O)N2CCC(c3ccc([S+](C)[O-])cc3)CC2)cc1NS(C)(=O)=O (centres unmarked) [Example 182, N-[2-methyl-5-[4-(4-methylsulfinylphenyl)piperidine-1-carbonyl]phenyl]methanesulfonamide] | 80 |
| CNS(=O)(=O)c1ccc(C2CCN(C(=O)c3ccc(C)c(NS(C)(=O)=O)c3)CC2)cc1 [Example 183, 4-[1-(3-methanesulfonamido-4-methylbenzoyl)piperidin-4-yl]-N-methylbenzenesulfonamide] | 90 |
| Cc1ccc(C(=O)N2CCC(c3ccc(C(=O)NC4CC4)cc3)CC2)cc1NS(C)(=O)=O [Example 184, N-cyclopropyl-4-[1-(3-methanesulfonamido-4-methylbenzoyl)piperidin-4-yl]benzamide] | 84 |
| Cc1ccc(C(=O)N2CCC(c3ccc(OS(C)(=O)=O)cc3)CC2)cc1NS(C)(=O)=O [Example 185, [4-[1-(3-methanesulfonamido-4-methylbenzoyl)piperidin-4-yl]phenyl]methanesulfonate] | 80 |
| Cc1ccc(C(=O)N2CCC(c3ccc(S(N)(=O)=O)cc3)CC2)cc1NS(C)(=O)=O [Example 186, 4-[1-(3-methanesulfonamido-4-methylbenzoyl)piperidin-4-yl]benzenesulfonamide] | 99 |
| Cc1ccc(C(=O)N2CCC(c3ccc(Oc4ccccn4)cc3)CC2)cc1NS(C)(=O)=O [Example 187, N-[2-methyl-5-[4-(4-pyridin-2-yloxyphenyl)piperidine-1-carbonyl]phenyl]methanesulfonamide] | 100 |
| CCCCOc1ccc(S(=O)(=O)Nc2ccc(C)c(C(=O)N3CCC(c4ccc(C#N)cc4)CC3)c2)cc1 [Example 198, 4-butoxy-N-[3-[4-(4-cyanophenyl)piperidine-1-carbonyl]-4-methylphenyl]benzene-sulfonamide] | 71 |

The next lines start with the values.

| inhibition at 100 µM [%] | SMILES |
| --- | --- |
| 110 | Cc1ccc(C(=O)N2CCC(c3ccc(C(=O)c4nccs4)cc3)CC2)cc1NS(C)(=O)=O [Example 188, N-[2-methyl-5-[4-[4-(1,3-thiazole-2-carbonyl)phenyl]piperidine-1-carbonyl]phenyl]methanesulfonamide] |
| 88 | Cc1ccc(C(=O)N2CCC(c3ccc(Oc4nccc(C(F)(F)F)n4)cc3)CC2)cc1NS(C)(=O)=O [Example 189, N-[2-methyl-5-[4-[4-[4-(trifluoromethyl)pyrimidin-2-yl]oxyphenyl]piperidine-1-carbonyl]phenyl]methanesulfonamide] |
| 88 | Cc1ccc(C(=O)N2CCC(c3ccc(Oc4ncccn4)cc3)CC2)cc1NS(C)(=O)=O [Example 190, N-[2-methyl-5-[4-(4-pyrimidin-2-yloxyphenyl)piperidine-1-carbonyl]phenyl]methanesulfonamide] |
| 63 | N#Cc1ccc(C2CCN(C(=O)c3ccc(Cl)c(NS(=O)(=O)c4ccccc4F)c3)CC2)cc1 [Example 191, N-[2-chloro-5-[4-(4-cyanophenyl)piperidine-1-carbonyl]phenyl]-2-fluorobenzenesulfonamide] |
| 67 | N#Cc1ccc(C2CCN(C(=O)c3ccc(Cl)c(NS(=O)(=O)c4ccc(Cl)cc4)c3)CC2)cc1 [Example 192, 4-chloro-N-[2-chloro-5-[4-(4-cyanophenyl)piperidine-1-carbonyl]phenyl]benzene-sulfonamide] |
| 70 | Cc1ccc(C(=O)N2CCC(c3ccc(S(C)(=O)=O)cc3)CC2)cc1NS(=O)(=O)Cc1ccccc1 [Example 193, N-[2-methyl-5-[4-(4-methylsulfonylphenyl)piperidine-1-carbonyl]phenyl]-1-phenyl-methanesulfonamide] |
| 69 | N#Cc1ccc(C2CCN(C(=O)c3ccc(F)c(NS(=O)(=O)Cc4ccccc4)c3)CC2)cc1 [Example 194, N-[5-[4-(4-cyanophenyl)piperidine-1-carbonyl]-2-fluorophenyl]-1-phenylmethane-sulfonamide] |
| 72 | Cc1ccc(C(=O)N2CCC(c3ccc(C#N)cc3)CC2)cc1NS(=O)(=O)CS(C)(=O)=O [Example 195, N-[5-[4-(4-cyanophenyl)piperidine-1-carbonyl]-2-methylphenyl]-1-methylsulfonyl-methanesulfonamide] |
| 96 | N#Cc1ccc(C2CCN(C(=O)c3ccc(C#N)c(NS(=O)(=O)Cc4ccccc4)c3)CC2)cc1 [Example 196, N-[2-cyano-5-[4-(4-cyanophenyl)piperidine-1-carbonyl]phenyl]-1-phenylmethane-sulfonamide] |
| 71 | COc1ccc(NS(C)(=O)=O)cc1C(=O)N1CCC(c2ccc(C#N)cc2)CC1 [Example 197, N-[3-[4-(4-cyanophenyl)piperidine-1-carbonyl]-4-methoxyphenyl]methanesulfonamide] |
| 79 | N#Cc1ccc(C2CCN(C(=O)c3cc(NS(=O)(=O)Cc4ccccc4)ccc3F)CC2)cc1 [Example 199, N-[3-[4-(4-cyanophenyl)piperidine-1-carbonyl]-4-fluorophenyl]-1-phenylmethane-sulfonamide] |
| 48 | Cc1ccc(C(=O)N2CCC(O)(c3ccc(Br)cc3)CC2)cc1NS(C)(=O)=O [Example 200, N-[5-[4-(4-bromophenyl)-4-hydroxypiperidine-1-carbonyl]-2-methylphenyl]methane-sulfonamide] |
| 68 | Cc1ccc(C(=O)N2CCC(O)(c3ccc(Br)cc3)CC2)cc1NS(=O)(=O)Cc1ccccc1 [Example 201, N-[5-[4-(4-bromophenyl)-4-hydroxypiperidine-1-carbonyl]-2-methylphenyl]-1-phenylmethanesulfonamide] |
